Read-outs that look alike come from different tables or passages of the source.
Assays:
[1] = log P determination (neutral / acidic, pH 2.3)
[2] = physchem
[3] = tested on: Sphaerotheca fuliginea; experiment: Sphaerotheca test (cucumber)/protective; type: in vivo; conditions: Podosphaera fuliginea, 168 h, 100 ppm active substance, protective, evaluation 7 days after inoculation, read-out: degree of effectiveness
Method: Sphaerotheca Test (Cucumber)/Protective [table] To prepare a suitable active substance composition, 1 part by weight of active substance is mixed with the given amounts of solvents and emulsifier and the concentrate is diluted to the desired concentration using water. For the testing of protective effectiveness, young plants are sprayed with the active substance composition in the application rate given. After the spray coating has been dried on, the plants are inoculated with an aqueous suspension of spores of Sphaerotheca fuliginea. The plants are then placed in a greenhouse at approximately 23° C. and a relative humidity of approximately 70%. Evaluation is carried out 7 days after the inoculation. In this connection, 0% means a degree of effectiveness corresponding to that of the control, while a degree of effectiveness of 100% means that no infestation is observed.

[4] = tested on: Uromyces appendiculatus; experiment: Uromyces test (beans)/protective; type: in vivo; conditions: 240 h, 100 ppm active substance, protective, evaluation 10 days after inoculation, read-out: degree of effectiveness
Method: Uromyces Test (Beans)/Protective [table] To prepare a suitable active substance composition, 1 part by weight of active substance is mixed with the given amounts of solvents and emulsifier and the concentrate is diluted to the desired concentration using water. For the testing of protective effectiveness, young plants are sprayed with the active substance composition in the application rate given. After the spray coating has been dried on, the plants are inoculated with an aqueous suspension of the spores of the bean rust pathogen Uromyces appendiculatus and then remain in an incubation chamber at approximately 20° C. and 100% relative humidity for 1 day. The plants are then placed in a greenhouse at approximately 21° C. and a relative humidity of approximately 90%. Evaluation is carried out 10 days after the inoculation. In this connection, 0% means a degree of effectiveness corresponding to that of the control, while a degree of effectiveness of 100% means that no infestation is observed.

[5] = tested on: Phakopsora pachyrhizi; experiment: Phakopsora test (soya)/protective; type: in vivo; conditions: 264 h, 100 ppm active substance, protective, evaluation 11 days after inoculation, read-out: degree of effectiveness
Method: Phakopsora Test (Soya)/Protective
(§1) To prepare a suitable active substance composition, 1 part by weight of active substance is mixed with the given amounts of solvent and emulsifier and the concentrate is diluted to the desired concentration using water.
For the testing of protective effectiveness, young plants are sprayed with the active substance composition in the application rate given. After the spray coating has been dried on, the plants are inoculated with an aqueous suspension of the spores of Phakopsora pachyrhizi and then remain in an incubation chamber at approximately 20° C. and 80% relative humidity for 1 day.
Evaluation is carried out 11 days after the inoculation. In this connection, 0% means a degree of effectiveness corresponding to that of the control, while a degree of effectiveness of 100% means that no infestation is observed.

[6] = tested on: Pyrenophora teres; experiment: Pyrenophora teres test (barley)/protective; type: in vivo; conditions: 500 ppm active substance, protective, evaluation 7-9 days after inoculation, read-out: degree of effectiveness
Method: Pyrenophora teres Test (Barley)/Protective
as §1
For the testing of protective effectiveness, young barley plants are sprayed with the active substance composition in the application rate given. 1 day after the treatment, the plants are inoculated with an aqueous suspension of the spores of Pyrenophora teres and then remain at 100% relative humidity and 20° C. for 48 h. Subsequently, the plants are placed in a greenhouse at 80% relative humidity and a temperature of 20° C.
Evaluation is carried out 7-9 days after the inoculation. In this connection, 0% means a degree of effectiveness corresponding to that of the control, while a degree of effectiveness of 100% means that no infestation is observed.

[7] = tested on: Blumeria graminis f.sp. hordei; experiment: Blumeria graminis test (barley)/protective; type: in vivo; conditions: 168 h, 1000 ppm active substance, protective, evaluation 7 days after inoculation, read-out: degree of effectiveness
Method: Blumeria graminis Test (Barley)/Protective
as §1
For the testing of protective effectiveness, young plants are sprayed with the active substance composition in the application rate given.
After the spray coating has been dried on, the plants are dusted with spores of Blumeria graminis f.sp. hordei.
The plants are placed in a greenhouse at a temperature of approximately 20° C. and a relative humidity of approximately 80%, in order to encourage the development of mildew pustules.
Evaluation is carried out 7 days after the inoculation. In this connection, 0% means a degree of effectiveness corresponding to that of the control, while a degree of effectiveness of 100% means that no infestation is observed.

[8] = tested on: Puccinia recondita var. tritici; experiment: Puccinia test (wheat)/protective; type: in vivo; conditions: 240 h, 1000 ppm active substance, protective, evaluation 10 days after inoculation, read-out: degree of effectiveness
Method: Puccinia Test (Wheat)/Protective
as §1
For the testing of protective effectiveness, young plants are sprayed with the active substance composition in the application rate given. After the spray coating has been dried on, the plants are sprayed with a suspension of the conidia of Puccinia recondita var. tritici. The plants remain in an incubation chamber at 20° C. and 100% relative humidity for 48 hours.
The plants are then placed in a greenhouse at a temperature of approximately 20° C. and a relative humidity of 80%, in order to encourage the development of rust pustules.
Evaluation is carried out 10 days after the inoculation. In this connection, 0% means a degree of effectiveness corresponding to that of the control, while a degree of effectiveness of 100% means that no infestation is observed.

[9] = tested on: Alternaria solani; experiment: Alternaria test (tomato)/protective; type: in vivo; conditions: 168 h, 500 ppm active substance, protective, evaluation 7 days after inoculation, read-out: degree of effectiveness
Method: Alternaria Test (Tomato)/Protective [table] To prepare a suitable active substance composition, 1 part by weight of active substance is mixed with the given amounts of solvent and emulsifier and the concentrate is diluted to the desired concentration using water. For the testing of protective effectiveness, young tomato plants are sprayed with the active substance composition in the application rate given. 1 day after the treatment, the plants are inoculated with a suspension of the spores of Alternaria solani and then stand at 100% relative humidity and 20° C. for 24 h. Subsequently, the plants stand at 96% relative humidity and a temperature of 20° C. Evaluation is carried out 7 days after the inoculation. In this connection, 0% means a degree of effectiveness corresponding to that of the control, while a degree of effectiveness of 100% means that no infestation is observed.

Row | Molecule | log P acidic [1] | logP ([2]; pH 2.3) | pest or weed control at 100 ppm [3] | pest or weed control at 100 ppm [4] | pest or weed control at 100 ppm [5] | pest or weed control at 500 ppm [6] | pest or weed control at 1000 ppm [7] | pest or weed control at 1000 ppm [8] | pest or weed control at 500 ppm [9] | logP [2] | log P neutral ([1]; neutral) | log P (pH 2.3)
1 | Cc1cc(Oc2nc(C3CC3)ns2)c(C)cc1/N=C/N1CCSCC1 [Compound 4, 4-[(3-Cyclopropyl-1,2,4-thiadiazol-5-yl)oxy]-2,5-dimethyl-N-[(1E)-thiomorpholin-4-ylmethyl-idene]aniline] | 1.73 | – | – | – | – | – | – | – | – | – | – | –
2 | CCN(C)C=Nc1cc(C)c(Oc2nc(C3CC3C)ns2)cc1C (stereo not drawn) [Compound 14, N′-(2,5-Dimethyl-4-{[3-(2-methylcyclopropyl)-1,2,4-thiadiazol-5-yl]oxy}phenyl)-N-ethyl-N-methylimidoformamide] | – | 1.96 | ≥ 70% | ≥ 70% | ≥ 80% | ≥ 70% | ≥ 70% | ≥ 70% | ≥ 70% | – | – | –
3 | CCN(C)C=Nc1cc(C)c(Oc2nc(C3(Cl)CC3)cs2)cc1C [Compound 5, N′-(4-{[4-(1-Chlorocyclopropyl)-1,3-thiazol-2-yl]oxy}-2,5-dimethylphenyl)-N-ethyl-N-methyl-imidoformamide] | – | – | ≥ 70% | ≥ 70% | ≥ 80% | ≥ 70% | ≥ 70% | ≥ 70% | ≥ 70% | 4.8 | – | –
4 | Cc1cc(Oc2nc(C3(C)CC3)ns2)c(C)cc1/N=C/N1CCCCC1 [Compound 11, 5-Dimethyl-4-{[3-(1-methylcyclopropyl)-1,2,4-thiadiazol-5-yl]oxy}-N-[(1E)-piperidin-1-yl-methylidene]aniline] | 2.13 | – | – | – | – | – | – | – | – | – | – | –
5 | CCN(C)C=Nc1cc(C)c(Oc2nc(C3(C)CC3)c(Cl)s2)cc1C [Compound 21, N′-(4-{[5-Chloro-4-(1-methylcyclopropyl)-1,3-thiazol-2-yl]oxy}-2,5-dimethylphenyl)-N-ethyl-N-methylimidoformamide] | – | 1.97 | ≥ 70% | ≥ 70% | ≥ 80% | ≥ 70% | ≥ 70% | ≥ 70% | ≥ 70% | 6 | – | –
6 | CCN(C)C=Nc1cc(C)c(Oc2nc(C3CC3)ns2)cc1C [Compound 1, N′-{4-[(3-Cyclopropyl-1,2,4-thiadiazol-5-yl)oxy]-2,5-dimethylphenyl}-N-ethyl-N-methylimidoformamide] | – | 1.59 | ≥ 70% | ≥ 70% | ≥ 80% | ≥ 70% | ≥ 70% | ≥ 70% | ≥ 70% | – | – | –
7 | CCN(C)C=Nc1cc(C)c(Oc2nc(C3(Cl)CC3)c(Cl)s2)cc1C [Compound 7, N′-(4-{[5-Chloro-4-(1-chlorocyclopropyl)-1,3-thiazol-2-yl]oxy}-2,5-dimethylphenyl)-N-ethyl-N-methylimidoformamide] | – | 1.82 | ≥ 70% | ≥ 70% | ≥ 80% | ≥ 70% | ≥ 70% | ≥ 70% | ≥ 70% | – | – | –
8 | Cc1cc(Oc2nc(C3(C)CC3)cs2)c(C)cc1/N=C/N1CCCCC1 [Compound 23, 2,5-Dimethyl-4-{[4-(1-methylcyclopropyl)-1,3-thiazol-2-yl]oxy}-N-[(1E)-piperidin-1-ylmethyl-idene]aniline] | 2.05 | – | – | – | – | – | – | – | – | – | – | –
9 | CCN(C)C=Nc1cc(C)c(Oc2nc(C3(C)CC3)ns2)cc1C [Compound 9, N′-(2,5-Dimethyl-4-{[3-(1-methylcyclopropyl)-1,2,4-thiadiazol-5-yl]oxy}phenyl)-N-ethyl-N-methylimidoformamide] | – | 1.94 | ≥ 70% | ≥ 70% | ≥ 80% | ≥ 70% | ≥ 70% | ≥ 70% | ≥ 70% | – | – | –
10 | Cc1cc(Oc2nc(C3CC3)ns2)c(C)cc1/N=C/N1CCCCC1 [Compound 3, 4-[(3-Cyclopropyl-1,2,4-thiadiazol-5-yl)oxy]-2,5-dimethyl-N-[(1E)-piperidin-1-ylmethyl-idene]aniline] | 1.75 | – | – | – | – | – | – | – | – | – | – | –
11 | Cc1cc(Oc2nc(C3(Cl)CC3)cs2)c(C)cc1/N=C/N1CCCCC1 [Compound 6, 4-{[4-(1-Chlorocyclopropyl)-1,3-thiazol-2-yl]oxy}-2,5-dimethyl-N-[(1E)-piperidin-1-ylmethyl-idene]aniline] | – | – | – | – | – | – | – | – | – | – | 5.49 | –
12 | Cc1cc(Oc2nc(C3CC3C)ns2)c(C)cc1N=CN(C)C(C)C (stereo not drawn) [Compound 15, N′-(2,5-Dimethyl-4-{[3-(2-methylcyclopropyl)-1,2,4-thiadiazol-5-yl]oxy}phenyl)-N-methyl-N-(1-methylethyl)imidoformamide] | – | 1.74 | ≥ 70% | ≥ 70% | ≥ 80% | ≥ 70% | ≥ 70% | ≥ 70% | ≥ 70% | – | – | –
13 | [5-Chloro-4-(1-methylcyclopropyl)-1,3-thiazol-2-yl]oxy-2,5-dimethylaniline | – | – | – | – | – | – | – | – | – | – | – | 4.13
